Data published in patent US20040229960A1, “Compositions and methods of administering tubulin binding agents for the treatment of ocular diseases” (priority 2001, published 2004).

Tests used:
[1] = test system: corneal neovascularization; assay: LHP-induced rabbit corneal neovascularization model, IP treatment; format: in vivo, New Zealand rabbits; conditions: late intervention, 50 mg/kg IP from Day 10 (Group 4)
[2] = test system: ocular neovascularization; assay: LHP-induced ocular neovascularization, intravenous treatment; format: in vivo, rabbit; conditions: 40 mg/kg i.v. once a day for five days; eyes examined seven days later
Experimental: To simulate pathogenic ocular angiogenesis, ocular neovascularization was induced by administration of lipid hydroperoxide (LHP) by intra-corneal injection at a dosage of 30 μg to rabbit eyes. Seven to 14 days later, ocular vessels formed in the injected eyes due to LHP insult. The subjects were divided into two groups; those of one group were given combretastatin A4 disodium phosphate by intravenous administration at a dosage of 40 mg/kg once a day for five days, while a vehicle without combretastatin A4 disodium phosphate was administered to the other group by i.v. administration as a dosage of water for the same time period. The eyes of both groups were examined seven days later.

[3] = Biodistribution of 14C-CA4P following intravitreal injection; format: in vivo, New Zealand rabbits
Experimental: ^14C-CA4P (OXiGENE Inc., Watertown, Mass.) was resuspended in 100 ul volume of saline solution and injected with a 30 G needle into the right eyes of anesthesized male New Zealand rabbits (4 months old, 1.8-2.5 kg, n=3 per sample). Three different concentrations of ^14C-CA4P were tested (1, 10, 100 mg/ml) corresponding to doses of 1, 5, and 5 uCi of applied radioactivity respectively. A blank control group was also included. Rabbits were anaesthetized at 1, 6, 24, and 48 hours for blood sampling. After blood collection, the animals were euthanized by Phenobarbital injection and the treated right eyes were removed from all test animals. Ocular tissue samples were dissected from the cornea, aqueous humor, vitreous humor, choroid, or retina, placed in 20-mi glass scintillation vials, vortexed, and incubated for 24 hrs with 500 ul digesting fluid. Plasma was separated from whole blood by centrifugation (1,800 g for 10 minutes). Both ocular tissue samples and plasma were incubated at room temperature with 16 ml of Hionic Fluor™ scintillation fluid for a period of 24 hours prior to radioactivity counting. Each sample was counted for 5 minutes in a Betamatic V counter (Bio-Tek Kontron Instruments, St Quentin en Yvelines, France). The conversion of counts per minute (“cpm”) into disintegrations per minute (“dpm”) was performed automatically by the beta-counter, using calibration curves obtained from ^14C-standards and quenching curves from the respective blank matrices spiked with ^14C-standards. The concentration of drug was determined according to nanogram equivalents of CA4P (ng-Eq/g of tissue) which was calculated from the measured dpm value, the weight of the tissue specimen, and the specific activity of the drug (0.37 mCi/mg), followed by subtraction of the corresponding background value from control eye tissue. A tissue concentration of 1 uM CA4P is equal to […] tissue.

[4] = test system: corneal neovascularization; assay: LHP-induced rabbit corneal neovascularization model, IP treatment; format: in vivo, New Zealand rabbits; conditions: for Effect on neovascular growth: 50 mg/kg IP
Text: To assess the ability of CA4P to inhibit corneal neovascularization, a rabbit corneal model was used in which neovascularization was induced by linoleic acid hydroperoxide (“LHP”) injection (Ueda et al., Angiogenesis, 1997, 1: 174-184). Injection of LHP in the corneal stroma stimulates the localized production of angiogenic cytokines within the cornea. Blood vessels in the circumlimbal plexus respond to the angiogenic stimulation by migrating towards the site of LHP injection. Therapeutic efficacy of systemically delivered CA4P was assessed by measuring the length of these proliferating vessels.
Vessels grew at a rate of 0.25 mm/day. Groups 2 and 4 were injected intraperitoneally (“IP”) with CA4P (50 mg/kg) after 3 and 10 days of vessel growth respectively. Treatment groups 1 and 3 were injected with saline control on day 3 and day 10 post-LHP injection. Surface photographs of the cornea were taken at 0, 3, 6, 12, 17, and 28 days post-LHP injection. Following each photographic session, corneal vessels were observed under an operating microscope and Castroviejo calipers were used to measure the length of the most prominent vessel.
In addition to longest-vessel measurements, histology analysis was undertaken on day 28 to assess the amount of dissolved extracellular matrix, vessel wall thickness, and degree of vessel branching. Euthanized animals were enucleated and the vitreous was removed from each eye prior to fixation in 4% paraformaldehyde for 45 minutes and 0.2M cacodylate buffer (pH 7.4) overnight. Eyes were embedded in paraffin, sectioned to a 3 um thickness, and stained with […] and eosin.

[5] = early intervention, 50 mg/kg IP qd x 5 from Day 3 (Group 2)

COc1ccc(/C=C\c2cc(OC)c(OC)c(OC)c2)cc1OP(=O)([O-])[O-].[Na+].[Na+] [CA4P, combretastatin A4 disodium phosphate]
Vessel Length on Day 24 [1]: 1.4 ± 0.46 mm | Reduction of vessels [2]: ≥ 40% | Cmax ([3]; aqueous humor, 1 mg/ml intravitreal): 0.15 µM | Cmax ([3]; aqueous humor, 10 mg/ml intravitreal): 0.79 µM | Cmax ([3]; aqueous humor, 100 mg/ml intravitreal): 460 µM | Cmax ([3]; cornea, 1 mg/ml intravitreal): 95 µM | Cmax ([3]; cornea, 10 mg/ml intravitreal): 969 µM | Cmax ([3]; cornea, 100 mg/ml intravitreal): 5870 µM | Time of highest concentrations of drug in the eye ([3]; intravitreal injection): within the first hour | Cmax ([3]; plasma, 1 mg/ml intravitreal): 0.4 µM | Cmax ([3]; plasma, 10 mg/ml intravitreal): 0.2 µM | Cmax ([3]; plasma, 100 mg/ml intravitreal): 0.78 µM | Cmax ([3]; retina, 1 mg/ml intravitreal): 160 µM | Cmax ([3]; retina, 10 mg/ml intravitreal): 1980 µM | Cmax ([3]; retina, 100 mg/ml intravitreal): 10700 µM | Concentration of drug delivered ([3]; retina, all concentrations tested, intravitreal): > 1 µM | Cmax ([3]; sclera, 1 mg/ml intravitreal): 19 µM | Cmax ([3]; sclera, 10 mg/ml intravitreal): 153 µM | Cmax ([3]; sclera, 100 mg/ml intravitreal): 16100 µM | Cmax ([3]; vitreous, 1 mg/ml intravitreal): 75 µM | Cmax ([3]; vitreous, 10 mg/ml intravitreal): 757 µM | Cmax ([3]; vitreous, 100 mg/ml intravitreal): 10000 µM | Histology of corneal vessels ([4]; Day 28, stained sections, vs vehicle (round and numerous)): vessels appeared narrow and less numerous | Vessel Length on Day 6 [4, 5]: 0.7 ± 0.16 mm | Vessel Length on Day 12 [4, 5]: 0.5 ± 0.61 mm | Vessel Length on Day 3 ([4]; early intervention, 50 mg/kg IP qd x 5 from Day 3 (Group 2), Day 3 = treatment start): 0.6 ± 0.12 mm | Effect on neovascular growth ([4]; intervention 10 days after angiogenic stimulation): the effect was the same | Effect on neovascular growth ([4]; intervention within 3 days of angiogenic stimulation): complete inhibition of neovascular growth | Vessel Length on Day 12 ([4]; late intervention, 50 mg/kg IP from Day 10 (Group 4), first column): 2.6 ± 0.29 mm | Vessel Length on Day 12 ([4]; late intervention, 50 mg/kg IP from Day 10 (Group 4), second column): 2.8 ± 0.49 mm | Regression rate of preformed vessels in the eye ([4]; rabbit eyes, preliminary work (FIGS. 3, 4)): accelerated the regression rate of preformed vessels
